Experimental data taken from patent US10175228B2, “Method of using transmembrane channel-like protein 6 (TMC6) protein to identify substances affecting salty taste” (priority 2016, dated 2019).

Target: T1, human TMC6 protein (Homo sapiens, UniProt Q7Z403)
T1 construct: expressed in transfected cells; host or cells: CHO-K1
T1 sequence (Q7Z403 1-805): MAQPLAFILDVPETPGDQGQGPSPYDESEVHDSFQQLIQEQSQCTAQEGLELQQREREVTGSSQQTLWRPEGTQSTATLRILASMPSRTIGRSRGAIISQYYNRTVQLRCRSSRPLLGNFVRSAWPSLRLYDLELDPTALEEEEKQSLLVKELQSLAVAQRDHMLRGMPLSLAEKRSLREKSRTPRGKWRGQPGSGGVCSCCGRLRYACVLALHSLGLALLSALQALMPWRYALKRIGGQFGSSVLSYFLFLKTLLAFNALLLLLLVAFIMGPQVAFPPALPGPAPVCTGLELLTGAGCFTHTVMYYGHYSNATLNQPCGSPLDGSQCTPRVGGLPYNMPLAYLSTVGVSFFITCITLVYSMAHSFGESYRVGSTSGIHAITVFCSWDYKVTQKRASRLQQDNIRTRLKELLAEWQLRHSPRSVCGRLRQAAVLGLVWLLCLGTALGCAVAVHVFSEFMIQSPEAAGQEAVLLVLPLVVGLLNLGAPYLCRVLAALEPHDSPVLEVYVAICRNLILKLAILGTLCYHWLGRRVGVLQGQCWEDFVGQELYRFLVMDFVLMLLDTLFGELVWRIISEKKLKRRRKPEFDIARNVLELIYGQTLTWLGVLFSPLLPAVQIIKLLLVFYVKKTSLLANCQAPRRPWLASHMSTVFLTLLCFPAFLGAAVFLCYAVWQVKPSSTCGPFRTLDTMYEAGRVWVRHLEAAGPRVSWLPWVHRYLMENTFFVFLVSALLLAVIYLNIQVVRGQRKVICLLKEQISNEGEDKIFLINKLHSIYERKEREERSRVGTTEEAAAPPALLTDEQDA
Test: Calcium imaging (YC2.60 FRET) of CHO-K1 cells expressing the human TMC6 gene
Type: cell-based
Settings: stimulation with high-concentration NaCl solution (135 mM NaCl)
Protocol: After the cultivation, the culture broth was removed. A low-concentration NaCl solution (27 mM NaCl, 1 mM KCl, 0.4 mM CaCl2, 0.2 mM MgCl2, 2 mM Hepes (pH7.3), 1 mM NaHCO3, 2 mM glucose, 2 mM sodium pyruvate, and 112 mM NMDG-Cl) was added to the culture dish, incubation was carried out statically for 5 min, and then, stimulation and observation of cells were started. First, the low-concentration NaCl solution was perfused for approximately 80 sec, to provide a ground state. […] The stimulation with the ATP stimulation solution was carried out by dropping 600 μL of the ATP stimulation solution near cells to be measured on the culture dish with a pipet within 3 sec.
Observation of the cells was carried out with a confocal laser microscope FV1200 (Olympus). […] Activation of the cells was measured using the intracellular calcium concentration as an index. The intracellular calcium concentration was measured by calcium imaging using YC2.60. YC2.60 is one of calcium-sensitive fluorescent proteins based on fluorescence resonance energy transfer (FRET). […] When calcium ions bind to YC2.60, FRET from CFP to YFP is induced, and thereby, CFP fluorescence is attenuated and YFP fluorescence is enhanced. That is, a higher intracellular calcium concentration provides a higher YFP/CFP value of a cell, which value represents the ratio of YFP fluorescence intensity with respect to CFP fluorescence intensity. […]

In the case of `[Cl-].[Na+]` [NaCl, sodium chloride], the “change of YFP/CFP value (intracellular calcium concentration, cell activation)” value was “increase”.
